Measured values from patent publication US10953016B2, “Solid dosage form containing quinazoline derivative” (Shionogi & Co., Ltd., priority 2017, dated 2021).
Where a name gives a salt, the structure may show the parent alone.

What was measured:
Type in all cases: physicochemical
[1] = Test of solubility in water for injection; details: stirred at 37° C. for 1 hour
Description: 1. Formulation of Calibration Curve
First, 5 mg of monohydrochloride crystalline form I of the compound represented by formula (I) was precisely weighed and dissolved in a mixed solution of acetonitrile:water (1:1), and thus a 500 μg/mL solution was obtained. The obtained solution was diluted with a mixed solution of acetonitrile:water (1:1) such that the concentrations of the compound were 5 and 50 μg/mL, and a standard calibration curve was prepared. The same operation was carried out for monohydrochloride crystalline form II, monohydrochloride crystalline form V, monohydrochloride crystalline form VI, mono-p-toluenesulfonate crystalline form I, and free base crystals.
2. Formulation of Sample Solution
First, 1 mg of monohydrochloride crystalline form I of the compound represented by formula (I) was precisely weighed and transferred to a vial having a volume of 4 mL. Then, 1 mL of water (water for injection) was added, and the mixture was stirred at 37° C. for 1 hour. After being stirred, this suspension was filtered, and the peak area using a solution obtained by diluting the filtrate two-fold with a mixed solution of acetonitrile:water (1:1) as a sample. The concentration was calculated using the peak area and the calibration curve prepared above. The same operation was carried out for monohydrochloride crystalline form II, monohydrochloride crystalline form V, monohydrochloride crystalline form VI, mono-p-toluenesulfonate crystalline form I, and free base crystals.

[2] = Water sorption-desorption isothermal measurement; details: ratio of increased moisture mass
Text: Water Sorption-desorption Isothermal Measurement

[3] = Light exposure test of crystals (E isomer by HPLC); details: for E isomer (Retention time 38 minutes) Increased amount: light exposed sample minus dark control
[4] = Influence of light wavelength on related substances in solution
Description: In order to research the influence of light of the compound represented by formula (I), the amount of the related substances was measured after illumination with constant quantity of light.
A fixed amount of monohydrochloride of the compound represented by formula (I) was collected and dissolved in a mix of pH7 buffer:methanol:acetonitrile=38:31:31 to prepare a solution of 800 μg/mL. The solution was sealed in glass bottles. Thereafter, the glass bottles containing solution were irradiated with light of different wavelengths by a light irradiator (CRM-FA manufactured by Nippon Spectroscopy) and the amounts of related substances were measured.
The amount of the related substances was measured by liquid chromatography by employing the following method and conditions. The main related substance was the E-form of the optical isomer of the compound represented by formula (I). Therefore, in the analysis of the related substance amount, the E-form of the optical isomer of the compound represented by formula (I) was used as a reference for the analysis. • Detector: ultraviolet absorptiometer (measurement wavelength: 225 nm) • Column: Cadenza CW-C18 3μ, 4.6×150 mm (Imtakt) • Column temperature: constant temperature around 35° C. • Mobile Phase A: 10 mM ammonium acetate, […]

[5] = Test of solubility in organic solvent; details: stirred at 22° C. for 4 hours, supernatant; for Concentration (% by weight) 2-Propanol: suspended in 2-propanol; for Concentration (% by weight) Acetone: suspended in acetone; for Concentration (% by weight) Ethyl acetate: suspended in ethyl acetate
Description: The monohydrochloride crystalline form I, monohydrochloride crystalline form V, and free base crystals of the compound represented by formula (I) were each suspended in 2-propanol, acetone, and ethyl acetate, and stirred at 22° C. for 4 hours, and the concentrations of supernatants were measured.

[6] = listed as mono-p-toluenesulfonate crystalline form I
[7] = listed as Monohydrochloride form crystal V
[8] = listed as Monohydrochloride form crystal VI

SMILES: CC#C/C(=N\OC[C@H]1COCCN1)c1ccc2ncnc(Nc3ccc(OCc4cccc(F)c4)c(Cl)c3)c2c1 [Monohydrochloride crystalline form II]
- Solubility in water for injection [1]: high solubilities
- Ratio of increased mass [2]: About 0.3%
- Ratio of increased mass ([2]; listed as monohydrochloride crystalline form H): small
- E isomer (Retention time 38 minutes) Dark control [3]: 1.44 area %
- E isomer (Retention time 38 minutes) Light exposed sample [3]: 1.21 area %
- E isomer (Retention time 38 minutes) Increased amount [3]: −0.23 area %

SMILES: CC#C/C(=N\OC[C@H]1COCCN1)c1ccc2ncnc(Nc3ccc(OCc4cccc(F)c4)c(Cl)c3)c2c1 [Mono-p-toluenesulfonate crystalline form I]
- Solubility in water for injection [1]: high solubilities
- Ratio of increased mass [2]: About 1.4%
- Ratio of increased mass [2, 6]: small
- E isomer (Retention time 38 minutes) Dark control [3]: 0.10 area %
- E isomer (Retention time 38 minutes) Light exposed sample [3]: 32.86 area %
- E isomer (Retention time 38 minutes) Increased amount [3]: 32.76 area %
- E isomer (Retention time 38 minutes) Increased amount [3, 6]: about 33 area %

SMILES: CC#C/C(=N\OC[C@H]1COCCN1)c1ccc2ncnc(Nc3ccc(OCc4cccc(F)c4)c(Cl)c3)c2c1
- Total amount of related substances, wavelength of light higher than 450 nm ([4]; 800 μg/mL solution in pH7 buffer:methanol:acetonitrile=38:31:31, light higher than 450 nm): increased little
- Total amount of related substances, wavelength of light shorter than 450 nm ([4]; 800 μg/mL solution in pH7 buffer:methanol:acetonitrile=38:31:31, light shorter than 450 nm): increased as the wavelength decreased

SMILES: CC#C/C(=N\OC[C@H]1COCCN1)c1ccc2ncnc(Nc3ccc(OCc4cccc(F)c4)c(Cl)c3)c2c1 [Monohydrochloride crystalline form V]
- Solubility in water for injection [1]: high solubilities
- Concentration (% by weight) 2-Propanol [5]: 0.01 % by weight
- Concentration (% by weight) Acetone [5]: 0.02 % by weight
- Concentration (% by weight) Ethyl acetate [5]: 0.00 % by weight
- Ratio of increased mass [2]: About 1.7%
- Ratio of increased mass ([2]; listed as monohydrochloride crystalline form V): small
- E isomer (Retention time 38 minutes) Dark control [3, 7]: 0.13 area %
- E isomer (Retention time 38 minutes) Increased amount [3, 7]: 1.06 area %
- E isomer (Retention time 38 minutes) Light exposed sample [3, 7]: 1.19 area %

SMILES: CC#C/C(=N\OC[C@H]1COCCN1)c1ccc2ncnc(Nc3ccc(OCc4cccc(F)c4)c(Cl)c3)c2c1 [Monosulfate crystal]
- Ratio of increased mass [2]: About 3.3%
- Ratio of increased mass ([2]; listed as monosulfate crystals): about 3.3%

SMILES: CC#C/C(=N\OC[C@H]1COCCN1)c1ccc2ncnc(Nc3ccc(OCc4cccc(F)c4)c(Cl)c3)c2c1 [Monohydrochloride crystalline form I]
- Solubility in water for injection [1]: high solubilities
- Concentration (% by weight) 2-Propanol [5]: 0.03 % by weight
- Concentration (% by weight) Acetone [5]: 0.08 % by weight
- Concentration (% by weight) Ethyl acetate [5]: 0.01 % by weight
- Ratio of increased mass [2]: About 0.8%
- Ratio of increased mass ([2]; listed as monohydrochloride crystalline form I): small
- E isomer (Retention time 38 minutes) Dark control [3]: 0.63 area %
- E isomer (Retention time 38 minutes) Light exposed sample [3]: 4.41 area %
- E isomer (Retention time 38 minutes) Increased amount [3]: 3.78 area %

SMILES: CC#C/C(=N\OC[C@H]1COCCN1)c1ccc2ncnc(Nc3ccc(OCc4cccc(F)c4)c(Cl)c3)c2c1 [Free base crystal]
- Solubility in water for injection ([1]; listed as free base crystals): not dissolved in water for injection at all
- Concentration (% by weight) 2-Propanol [5]: 0.49 % by weight
- Concentration (% by weight) Acetone [5]: 8.1 % by weight
- Concentration (% by weight) Ethyl acetate [5]: 3.3 % by weight
- Ratio of increased mass [2]: About 1.0%
- E isomer (Retention time 38 minutes) Light exposed sample [3]: 2.59 area %
- E isomer (Retention time 38 minutes) Increased amount [3]: 2.59 area %

SMILES: CC#C/C(=N\OC[C@H]1COCCN1)c1ccc2ncnc(Nc3ccc(OCc4cccc(F)c4)c(Cl)c3)c2c1 [Monohydrochloride crystalline form VI]
- Solubility in water for injection [1]: high solubilities
- Ratio of increased mass [2]: About 0.5%
- Ratio of increased mass ([2]; listed as monohydrochloride crystalline form VI): small
- E isomer (Retention time 38 minutes) Dark control [3, 8]: 1.16 area %
- E isomer (Retention time 38 minutes) Increased amount [3, 8]: 0.64 area %
- E isomer (Retention time 38 minutes) Light exposed sample [3, 8]: 1.80 area %
